According to paper PMC10784468 (Nature Communications, 2024):

Assays:
[1] = tested on: EJ tumor tissues; assay: Tumor GSH content detection; assay type: in vivo, BALB/c nude mice; details: tumor
Experimental: (§1) EJ tumor tissues were collected under euthanasia at the end of treatment and washed with PBS for 3 times. Afterwards, the tumor lysates were collected by centrifugation at 8000 rpm for 10 min at 4 °C after lysed with Frozen Type Tissuelyser. Finally, the GSH contents were measured with a GSH Assay Kit based on the manufacturer’s instructions.

[2] = ζ-potential in PBS; assay type: physicochemical; details: 40 μM in PBS, pH 7.4; mean of n = 3
Experimental: Supplementary Fig. 12. ζ-potential change of Gi-F-CAA (40 μM) in PBS (0.01 M, pH 7.4 or 6.5) (n=3
experimental repeats). Experiment was independently repeated three times with similar results. Values are
(1 picture or pasted object on this page, not shown here)
Supplementary Fig. 13. ζ-potential of NGi-F-CAA, Gi-F and Gi-F-SA (pH 7.4) (40 μM) in PBS (n=3

[3] = target: T1, GPX4 (Homo sapiens, UniProt P36969); assay: Tumor GPX4 activity detection; assay type: in vivo, BALB/c nude mice; set-up: from tissue; host or cells: EJ xenograft tumour tissue from BALB/c nude mice
T1 sequence (P36969 1-197): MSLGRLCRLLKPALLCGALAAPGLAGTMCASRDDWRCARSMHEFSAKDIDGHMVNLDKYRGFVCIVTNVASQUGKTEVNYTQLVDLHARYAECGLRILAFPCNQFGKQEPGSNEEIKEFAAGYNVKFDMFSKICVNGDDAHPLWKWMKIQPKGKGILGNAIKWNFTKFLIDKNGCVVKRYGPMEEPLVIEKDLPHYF
Experimental: as §1, with “5000” for “8000”, “by freeze-thaw treatment.” for “with Frozen Type Tissuelyser.”, “GPX4 activity” for “GSH contents”, “GPX” for “GSH”

[4] = Particle size by DLS; assay type: physicochemical; details: 40 μM, PBS 0.01 M, pH 6.5, with GPX4; Supplementary Fig. 18
Experimental: Nano-ZS 3600 (Malvern Instruments, UK) was used to measure the size distribution of the peptide-porphyrin conjugate solutions. The conjugate solutions (40 μM) were incubated at pH 7.4 or pH 6.5 before measurements. An average value was determined by three repeated measurements at 25 °C for each sample. Besides, transmission electron microscopy (TEM, Tecnai G2 20 S-TWIN) was conducted to observe the morphology and diameters of conjugates in aqueous solution, The conjugates (50 μL, 40 μM) were kept in PB solution at pH 7.4 or pH 6.5, which were dropped on copper meshes. After 5 min, unnecessary liquid was removed and the uranyl acetate solution (10 μL) was dropped on this copper mesh to stain the samples for 10 min. Finally, the copper meshes were washed with deionized water, and dried at room temperature for observation.

[5] = tested on: EJ tumor tissues; assay: Tumor MDA content detection; assay type: in vivo, BALB/c nude mice; details: tumor
Experimental: as §1, with “8000 g” for “8000 rpm”, “the MDA” for “the GSH”, “measured by thiobarbituric acid (TBA) reaction” for “measured”, “a Malondialdehyde (MDA)” for “a GSH”, “Kit (Solarbio Science & Technology Co., Ltd., China, BC0025)” for “Kit”

[6] = tested on: EJ xenograft tumor; assay: Penetration assay in tumor frozen sections (Cy labeled); details: mouse, in vivo, iv, 8 mg/kg
Experimental: Firstly, EJ xenograft mice were administrated with Cy labeled Gi-F (8 mg/kg in 100 μL PBS) and Cy labeled Gi-F-CAA (8 mg/kg in 100 μL PBS) by intravenous injection. Afterward, EJ tumor tissues were entirely resected and protected from light. Subsequently, the tumor tissues were fixed with optimum cutting temperature (OCT) compound for 12 h at −20 °C avoiding light. Finally, the fixed tumor tissues were cut into sections and immediately observed with UltraVIEW VoX.

[7] = tested on: EJ xenograft tumors; assay: In vivo antitumor evaluation in EJ xenograft model (tumor volume, tumor weight, body weight); details: 8 mg/kg i.v.; for Tumor weight: six injections, 18 days
Experimental: Female BALB/c nude mice (~8 weeks, 18 g) were subcutaneously inoculated with 5 × 10^6 EJ cells resuspended in Matrigel. When the tumor size reached about 100 mm^3, EJ tumor-bearing mice were randomly divided into four groups and administrated with PBS, Gi-F (8 mg/kg in 100 μL PBS), Gi-F-SA (8 mg/kg in 100 μL PBS) and Gi-F-CAA (8 mg/kg in 100 μL PBS) by intravenous injection at 2-days intervals for six times. Individual tumor volume and bodyweight of mouse after different treatment was collected at 2-days intervals for analysis. Mice were killed at 18 days post treatment unless endpoints were exceeded. Moreover, tumors from all groups were harvested under euthanasia and weighed for analysis at the end of treatment.

[8] = tested on: EJ cells; assay: Cytotoxicity assay (CCK-8) on EJ cells; details: pH 7.4
Experimental: Initially, EJ cells were seeded into 96 well plates at a density of 5 × 10^3 per well and incubated in a CO2 incubator overnight at 37 °C. Subsequently, Gi-F (pH = 7.4), Gi-F-SA (pH = 7.4), NGi-F-CAA (pH = 7.4), NGi-F-CAA (pH = 6.5), Gi-F-CAA (pH = 7.4) and Gi-F-CAA (pH = 6.5) at different concentrations (1, 2, 4, 8, 16, 32, 64, 128 and 256 μM) was added to the cells and further incubated for 48 h. Finally, the cell viability rate was calculated by (Sample wells-Blank wells)/(Control wells-Blank wells) × 100%.

For “FeTCPP-LKLKLKGACNWLPLYPCPV (disulfide) [Gi-F]”, the “Relative content of GSH” value ([1]; mice 1) was 0.74, the “Relative content of GSH” value ([1]; mice 2) was 0.713 and the “Relative content of GSH” value ([1]; mice 3) was 0.713. The “Relative content of GSH” value ([1]; mice 4) was 0.681, the “Relative content of GSH” value ([1]; mice 5) was 0.676 and the “Relative content of GSH” value ([1]; mice 6) was 0.763. For the same substance, the “Zeta potential (mV)” value [2] was -8.4 mV, the “Relative activity of GPX4” value ([3]; mice 1) was 0.57 and the “Relative activity of GPX4” value ([3]; mice 2) was 0.52. The “Relative activity of GPX4” value ([3]; mice 3) was 0.57, the “Relative activity of GPX4” value ([3]; mice 4) was 0.57 and the “Relative activity of GPX4” value ([3]; mice 5) was 0.52. The “Relative activity of GPX4” value ([3]; mice 6) was 0.57, the “particle size (DLS) after incubation with GPX4” value [4] was ~ 90 ± 9 nm and the “Relative content of MDA” value ([5]; mice 1) was 2.1. For the same substance, the “Relative content of MDA” value ([5]; mice 2) was 2.6, the “Relative content of MDA” value ([5]; mice 3) was 2.35 and the “Relative content of MDA” value ([5]; mice 4) was 2.5. The “Relative content of MDA” value ([5]; mice 5) was 2.3, the “Relative content of MDA” value ([5]; mice 6) was 2.45 and the “tumor penetration, fluorescence distribution in tumor sections” value [6] was “only distributed around the periphery of tumor tissues”. The “mean tumor volume at 18 days post injection” value ([7]; six injections at 2-days intervals, n = 6) was 1426 mm^3, the “Tumor weight” value ([7]; mice 1) was 1.433 g and the “Tumor weight” value ([7]; mice 2) was 1.25 g. For the same substance, the “Tumor weight” value ([7]; mice 3) was 1.087 g, the “Tumor weight” value ([7]; mice 4) was 1.055 g and the “Tumor weight” value ([7]; mice 5) was 0.939 g. The “Tumor weight” value ([7]; mice 6) was 1.259 g and the IC50 [8] was 11.3 µM.
